Source: article PMC9794991, “Evaluation of analogs of mutacin 1140 in systemic and cutaneous methicillin-resistant Staphylococcus aureus infection models in mice” (Frontiers in Microbiology, 2022)
≈ marks a conversion by molar mass, not a printed value. Where “and” joins values, the source holds several entries; their conditions need not be identical. Equal entries are not always repeated. Structures can show the parent of a compound that is named as a salt. Where two headings read alike, the source gives them in different places.

Tests used:
[1] = system: S. aureus ATCC 33591 (MRSA); assay: MIC in broth (CLSI M07-A8) against MRSA 33591; format: cell-based, Staphylococcus aureus
Experimental: (§1) Preparation of the antimicrobial agent and bacterial inoculum for MICs was performed by following the method described by the Clinical and Laboratory Standards Institute (CLSI; M07-A8; [CLSI, 2018]) and as previously reported by our group ([Chen et al., 2013]; [Escano et al., 2017]; [Geng and Smith, 2018]). […] A single colony from an overnight culture of S. aureus was inoculated in 10 ml of THyex broth (30 g/L Todd Hewitt broth, 3 g/L yeast extract). The inoculum was placed in a shaking incubator at 37°C and 280 rpm and grown to an OD600 of 0.6–0.8. The culture broth was then diluted to an OD600 of 0.132, after which a 20-fold dilution in fresh broth was performed resulting in a ~5 × 10^5 CFU/ml cell density. Mu1140 and Mu1140 analogs were solubilized in dimethyl sulfoxide (DMSO) at a concentration of 1 mg/ml as the stock solution. […] The same volume of DMSO was added to all test samples including the no-drug control. The cultures were placed in a shaking incubator at 37°C and 200 rpm (Stuart orbital incubator SI500). A 100 μl sample from each culture was taken at each time point of 0, 0.25, 0.5, 0.75, 1, 1.5, 2, 4, 8, 18, and 24 h and was serially diluted in fresh medium before being spread on THyex agar plates (30 g/L Todd Hewitt broth, 3 g/L yeast extract, 15 g/L agar) for determining the CFUs. The plates were allowed to grow for 24 h at 37°C before the colony-forming units (CFUs) were counted. The CFU/ml for each time-point at each drug concentration was determined using at least two independent cultures. Plates having 30 to 300 colonies were used for CFU measurements.

[2] = system: S. aureus ATCC TCH1516 skin infection; assay: Topical treatment of incision MRSA skin infection (Trial 1); format: in vivo, BALB/c mice; settings: for Group mean (±SE) of log CFU/infection site: 10 mg/kg/day topical, twice daily for 6 days from 24 h post-infection, n = 6, vehicle control 5.33 ± 0.64
Experimental: Trial 1: In this trial, the infection model was performed following methods that were previously reported ([Kugelberg et al., 2005]; [Guo et al., 2013]; [Simonetti et al., 2020]). […] Seven groups (n = 6 mice/group) were acclimatized to the environment for at least 7 days before the start of the experiment. Once the hair on the dorsum of the mice was shaved, a 1 cm incision was made and a 50 μl suspension of S. aureus ATCC TCH1516 in PBS, containing 2 × 10^7 CFUs, was applied directly to the incision. Mice were housed individually until inoculum dried at the incision site (Day (D) 0). Approximately 24 h later (D1), treatment was applied topically twice daily for 6 days. […] Another group received the no-drug vehicle control (0.6% noble agar in citrate buffer). Weights of mice were measured at least once per day, while behavior and the wounds were monitored multiple times per day. Mice were sacrificed 1 day after the last topical treatment (D7). Dermal tissues at the infected sites were sampled and homogenized in sterile PBS. The homogenates were serially diluted and plated on THyex agar for determining CFUs.

[3] = system: S. aureus ATCC33591 skin infection; assay: Subcutaneous treatment of subcutaneous MRSA skin infection (Trial 2); format: in vivo, BALB/c mice; settings: three times per day for 3 days from 48 h post-infection, n = 8
Experimental: Trial 2: In this trial, the infection model was performed following methods that were previously reported ([Guo et al., 2013]; [Dejani et al., 2016]). […] Mice were acclimatized to the environment for at least 7 days before initiating experiments. After shaving the hair on the dorsum of the mice, a 50 μl suspension of S. aureus ATCC33591 in PBS, containing 1.5 × 10^7 CFUs, was injected subq (D0). As noted in trial 1, no bleeding was observed during all injections. […] Mice were separated into four groups (n = 8 for treatment and no-drug vehicle control groups; D2). […] The last group received the no-drug vehicle control (sterile water with 20% DMSO). Treatments were administered three times per day to the mice through a 3-point subq injection around the scab with the needle pointed toward the center of the wound. Weights of mice were measured at least once per day, while behavior and the wound sites were monitored multiple times per day. Mice were sacrificed approximately 24-h after the last subq treatment (D6). Dermal tissues at the infected sites were sampled and homogenized in sterile PBS. The homogenates were serially diluted and plated on THyex agar for determining CFUs.

[4] = system: S. aureus ATCC33591 skin infection; assay: Intravenous treatment of an in vivo MRSA acute skin infection; parameters: species or system BALB/c mice
Experimental: Mice were acclimatized to the environment for at least 7 days before initiating experiments. After shaving the hair on the dorsum of the mice, a 50 μl suspension of S. aureus ATCC33591 in PBS, containing 1.5 × 10^7 CFUs, was injected subcutaneously (subq). No bleeding was observed during all injections. […] Mice were separated into four groups (n = 8 for the treatment groups and n = 6 for the control). […] The last group received the no-drug vehicle control (PBS with 5% DMSO). Weights of mice were measured at least once per day, while behavior and the wounds were monitored multiple times per day. Mice were sacrificed approximately 24-h after the last i.v. treatment (Day 6; D6). Dermal tissues at the infected sites were sampled and homogenized in sterile PBS. The homogenates were serially diluted and plated on THyex agar for determining CFUs.

[5] = system: MRSA (S. aureus ATCC 33591) systemic infection; assay: In vivo MRSA systemic infection model (survival); settings: single 10 mg/kg i.v. dose 1 h post-infection
Experimental: The vehicle (saline with 15% DMSO) served as the no-drug control group of mice. Each mouse was monitored every 4 h during the first 2 days post-infection (day 0 to day 2), and every 8 h from day 2 to day 5.

clinical MRSA isolates = assay: MIC in broth against a panel of clinical MRSA isolates; format: cell-based; settings: Staphylococcus aureus
S. aureus ATCC 33591 = assay: Time-kill study (kill kinetics); format: cell-based, Staphylococcus aureus
Experimental: as §1

[6] = Staphylococcus aureus, MRSA 33591, in broth, read-out: MIC
[7] = 10 mg/kg/day i.v. for 5 days, n = 8

CC(=O)O[C@H]1C[C@@]2(C)[C@@H](C[C@@H](O)[C@H]3[C@@]4(C)CC[C@@H](O)[C@@H](C)[C@@H]4CC[C@@]32C)/C1=C(\CCC=C(C)C)C(=O)O [Fusidic acid]
MIC [1, 6]: 1 µg/mL (≈ 1.94 µM) | log reduction in bacterial load compared to the vehicle control group ([2]; 10 mg/kg/day topical for 6 days, not statistically significant): 2.17 log | Group mean (±SE) of log CFU/infection site [2]: 3.16 ± 0.50 log CFU/infection site | Group mean (±SE) of log CFU/infection site ([2]; listed as fusidic acid): 3.16 log CFU/infection site

CC(=O)NC[C@H]1CN(c2ccc(N3CCOCC3)c(F)c2)C(=O)O1 [Linezolid, linezolid]
MIC [1, 6]: 1 µg/mL (≈ 2.96 µM) | log reduction in CFUs (mean difference to vehicle control) ([3]; 75 mg/kg/day subq): 0.6 log | log reduction in CFUs (mean difference to vehicle control) ([3]; 75 mg/kg/day subq, listed as linezolid): 0.60 log

mutacin 1140 [Mu1140]
MIC ([1]; MRSA 33591, in broth): 0.5 µg/mL | MIC compared to fusidic acid and linezolid ([1]; S. aureus 33591): two-fold lower | MIC compared to vancomycin ([1]; S. aureus 33591): four-fold lower | effect on bacterial load at the skin lesion site [4, 7]: statistically significant reduction in CFUs | mean difference in bacteria load to the vehicle control group ([4]; 10 mg/kg/day i.v. for 5 days, Cohen's d = 1.27, p = 0.0265): 0.61 log CFU | bacteria count at the lesion ([4]; 10 mg/kg/day i.v. twice daily for 5 days from 48 h post-infection, n = 8, vehicle control 7.82): 7.21 log CFU | Group mean (±SE) of log CFU/infection site [2]: 5.23 log CFU/infection site and 5.23 ± 0.93 log CFU/infection site | log reduction in CFUs (mean difference to vehicle control) ([3]; 25 mg/kg/day subq): 0.78 log | survival at 12 h post-infection [5]: 100% | survival at 24 h post-infection [5]: 83.3%

CN[C@H](CC(C)C)C(=O)N[C@H]1C(=O)N[C@@H](CC(N)=O)C(=O)N[C@H]2C(=O)N[C@H]3C(=O)N[C@H](C(=O)N[C@H](C(=O)O)c4cc(O)cc(O)c4-c4cc3ccc4O)[C@H](O)c3ccc(c(Cl)c3)Oc3cc2cc(c3O[C@@H]2O[C@H](CO)[C@@H](O)[C@H](O)[C@H]2O[C@H]2C[C@](C)(N)[C@H](O)[C@H](C)O2)Oc2ccc(cc2Cl)[C@H]1O [Vancomycin, Vancomycin hydrochloride]
MIC ([1]; Staphylococcus aureus): 2 µg/mL | MIC (clinical MRSA isolates; MRSA / USA300, strain USA300, in broth): 2 µg/mL | MIC (clinical MRSA isolates; MRSA, strain 602, in broth): 2 µg/mL | MIC (clinical MRSA isolates; MRSA, strain 611, in broth): 2 µg/mL | MIC (clinical MRSA isolates; MRSA, strain 616, in broth): 2 µg/mL | MIC (clinical MRSA isolates; MRSA, strain 631, in broth): 2 µg/mL | MIC (clinical MRSA isolates; MRSA, strain 640, in broth): 1 µg/mL | MIC (clinical MRSA isolates; MRSA, strain 641, in broth): 2 µg/mL | MIC (clinical MRSA isolates; MRSA, strain 644, in broth): 2 µg/mL | MIC (clinical MRSA isolates; MRSA, strain 30476, in broth): 2 µg/mL | MIC (clinical MRSA isolates; MRSA, strain 31225, in broth): 1 µg/mL | MIC (clinical MRSA isolates; MRSA, strain 31258, in broth): 1 µg/mL | MIC (clinical MRSA isolates; MRSA, strain CA347, in broth): 2 µg/mL | MIC (clinical MRSA isolates; MRSA, strain CA513, in broth): 4 µg/mL | MIC (clinical MRSA isolates; MRSA, strain CA-409, in broth): 2 µg/mL | MIC (clinical MRSA isolates; MRSA, strain CO-34, in broth): 2 µg/mL | MIC (clinical MRSA isolates; MRSA, strain GA442, in broth): 4 µg/mL | MIC (clinical MRSA isolates; MRSA, strain HFH30364, in broth): 2 µg/mL | MIC (clinical MRSA isolates; MRSA, strain HFH30522, in broth): 1 µg/mL | MIC (clinical MRSA isolates; MRSA, strain N315, in broth): 2 µg/mL | MIC (clinical MRSA isolates; MRSA, strain SAEH06, in broth): 0.5 µg/mL | reduction in viable cells (S. aureus ATCC 33591; 0.5× MIC): negligible differences between the vehicle control and the treatment groups | time needed for a 2-log reduction in CFUs (S. aureus ATCC 33591; 1× and 2× MIC): 8 hours | time until viable cell counts dropped below the detection limit (S. aureus ATCC 33591; 2× MIC): more than 8 h | viable cells at 18 and 24 h post-administration (S. aureus ATCC 33591; 2× MIC): no viable cells | effect on bacterial load at the skin lesion site [4, 7]: did not have any significant effect on the bacterial load | effect on bacterial load at the skin lesion site ([4]; 10 mg/kg/day i.v. for 5 days, n = 8, listed as vancomycin): did not show any statistical significance to vehicle control | survival at 12 h post-infection [5]: 75.0% | survival at 24 h post-infection [5]: 50%

daptomycin
effect on bacterial load at the lesion site ([4]; 25 mg/kg i.v. dose, same experimental conditions, data not shown): no impact on the bacterial load
